Numbering of substitutions follows the chain as printed. Read-outs that look alike come from different tables or passages of the source.
Columns and labels:
[1] = pH 7.72, l = 0.5, KNO3; cited from earlier work
[2] = Concentration-dependent reaction rate of aquacobalamin with thiol ligand forming thiolatocobalamin (time-resolved UV-visible spectroscopy); assay type: physicochemical; details: pH 7.2, l = 1, sodium triflate
Protocol: The UV-visible spectra of newly synthesized cobalamin derivatives was determined in EPPS buffer (40 mM, pH 7.6, l=1.0 M with sodium triflate). The reaction of aquacobalamin with cysteamine and mercaptopropionylglycine was monitored by time-resolved spectral scanning of reactions containing a fixed amount of aquacobalamin (10-25 μM (micromolar)) and various concentrations of the ligand.
Mercaptopropionylglycine reacted readily with aquacobalamin to form a stable MPGCbl complex at pH 7.2.
A fixed concentration of aquacobalamin was reacted with varying concentrations of the ligand MPG. The reaction was monitored by time-resolved UV-visible spectroscopy for a total of 50 minutes (FIG. 5). The spectral changes were consistent with the conversion of aquacobalamin into MPGCbl (FIG. 5 a) via a mechanism that involves no detectable reaction intermediates. Initial and final spectra are analyzed to confirm the identity of the thiolatocobalamin product (FIG. 5 b). Time courses were generated at the absorption maxima of each species (350 nm, H2OCbl^+, and 372 nm, MPGCbl) (FIG. 5 c).

human wild type CblC = target: T1, human wild type CblC (Homo sapiens, UniProt Q9Y4U1); test: Binding to CblC and conversion to base-off configuration (UV-visible spectrophotometry); details: pH 7.6, EPPS buffer 0.04 M
T1 sequence (Q9Y4U1 1-282): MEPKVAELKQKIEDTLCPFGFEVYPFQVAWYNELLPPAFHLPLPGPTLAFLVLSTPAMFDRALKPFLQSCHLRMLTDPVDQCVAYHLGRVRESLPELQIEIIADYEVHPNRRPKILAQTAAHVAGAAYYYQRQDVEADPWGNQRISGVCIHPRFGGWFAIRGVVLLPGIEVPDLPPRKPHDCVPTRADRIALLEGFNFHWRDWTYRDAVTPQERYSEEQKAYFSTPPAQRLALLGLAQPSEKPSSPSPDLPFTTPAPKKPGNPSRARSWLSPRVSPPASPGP
Protocol: An important aspect for the bioactivity of the new compounds is their ability to bind to the processing enzyme CblC, and to undergo conversion to the base-off configuration, which enhances their reactivity. This is a critical step in all intracellular pathways of vitamin B12 metabolism that are involved in pathogenesis, and certainly, relevant to the cblC disease itself. […] Binding studies were conducted at pH 7.6 (EPPS buffer, 0.04 M) and analyzed by UV-visible spectrophotometry.

[3] = target: T2, human recombinant CblC wild type (Homo sapiens, UniProt Q9Y4U1); assay type: biochemical; details: for Product of the reaction: cobalamin bound to human CblC, in the presence of GSH; for Half-life of beta-axial ligand removal, Wild type CblC: human, pH 7.6
T2 sequence (Q9Y4U1 1-282): T1 sequence (Q9Y4U1 1-282)
Protocol: (§1) The ability of the newly synthesized Cbl derivatives to serve as substrates for CblC was examined (FIG. 12). CblC activity was measured by UV-visible spectroscopy according to published procedures. Analysis of reaction products was performed by mass spectrometry. We measured dealkylation and de-thiolation of Co—C and Co—S bonded Cbl derivatives, respectively, by wild type and mutant CblC proteins to determine whether these reactions could be supported in patients harboring an abnormal isoform of CblC with low or no enzymatic activity.
The enzymatic activity of CblC in the presence of CyaCbl and MPGCbl as substrates was evaluated under the same experimental conditions utilized to examine dealkylation of MeCbl and AdoCbl. […] The reaction was complete in less than 10 seconds, which is the time it takes to record the first spectrum after mixing of CblC-bound to CyaCbl or MPGCbl with 5 mM GSH (FIG. 12).
(§2) First, the ability of novel cobalamins described herein was tested to act as substrate for wild type CblC and to restore the lost activity of pathogenic variants, such as mutant Arg161Gly, that leads to early-onset form of the cblC disease.

[4] = target: T3, human recombinant CblC pathogenic mutant Arg161Gly (Homo sapiens, UniProt Q9Y4U1, R161G); assay type: biochemical; details: for Product under ambient conditions, Mutant Arg161Gly: dethiolation, 50 μM GSH; for Half-life of beta-axial ligand removal, Mutant Arg161Gly: human, pH 7.6
T3 sequence (Q9Y4U1 1-282 R161G): T1 sequence (Q9Y4U1 1-282) with R161G
Protocol: as §1, §2

[5] = tested on: fibroblasts from healthy subjects; test: MMA in conditioned medium of control fibroblasts; assay type: cell-based, human
Description: (§3) Cultured cells from control (healthy neonatal subjects) or cblC fibroblasts were supplemented without exogenous Cbl (negative control), with commercial CNCbl (current therapy control) or with the newly synthesized cobalamins (test group). The ability of these compounds to support intracellular Cbl metabolism in the absence of CblC was examined by monitoring disease biomarker metabolites Hcy and MMA levels in the conditioned medium.
(§4) The cellular response to treatment with new derivatives CyaCbl and MPGCbl in comparison with current therapeutic form CNCbl was measured. The ability of the new cobalamin derivatives CyaCbl and MPGCbl to achieve metabolic control, i.e. reduction of for example MMA production by cblC fibroblasts in culture, was examined as described in previously published experimental protocols. FIG. 13 provides a comparison of the effect of CNCbl (0.001 mM) versus the same dose of CyaCbl or MPGCbl given to cultured fibroblasts from healthy subjects (HFF, NHDF, PCS, Wiesel, Control) or from cblC patients (WG1801, WG2176, WG3354, GM10011, GM02345B, GM02452C).
(§5) Additional examination of the effect of thiolatocobalamins CyaCbl and MPGCbl and sulfur-containing alkylcobalamin Me-S-MeCbl with respect to structural analogues that are NOT available for therapy was also carried out, for comparative purposes. The results of cellular response (healthy controls and cblC patient fibroblasts) to cobalamin treatment, as reflected by MMA levels is provided in Table 6.

[6] = tested on: fibroblasts isolated from patients with cblC disease; test: MMA in conditioned medium of cblC patient fibroblasts; assay type: cell-based, human; details: for Reduction of MMA to the levels of healthy fibroblasts, compared with CNCbl: 0.001 mM, same dose as CNCbl, FIG. 13
Description: as §3, §4, §5

cultured fibroblasts = test: Cytotoxicity and cellular transport observed in cultured fibroblast experiments; assay type: cell-based, human; details: for Transport into the cells: canonical TC transporter and its cellular receptor CD320; for Cytotoxicity: under the experimental conditions of the fibroblast cultures
[7] = target: T2, human recombinant CblC wild type; assay type: biochemical; details: dethiolation; 50 μM GSH
[8] = UV-visible spectrum of purified cobalamin in water (base-off configuration without CblC); assay type: physicochemical; details: after acetone precipitation and vacuum filtration
[9] = Controls (group value), after 7 days
[10] = Controls, after 7 days wash-off period without supplemental cobalamin
[11] = HFF control fibroblasts, after 7 days
[12] = NHDF control fibroblasts, after 7 days
[13] = Wiezel control fibroblasts, after 7 days
[14] = GM02345B cblC fibroblasts, after 7 days
[15] = GM02452C cblC fibroblasts, after 7 days
[16] = GM10011 cblC fibroblasts, after 7 days
[17] = WG1801 cblC fibroblasts, after 7 days
[18] = WG2176 cblC fibroblasts, after 7 days
[19] = WG3354 cblC fibroblasts, after 7 days
[20] = cblC patients (group value), after 7 days
[21] = cblC patients, after 7 days wash-off period without supplemental cobalamin

Compound | K, concentration-dependent reaction rate (formation from aquacobalamin) [1] [M⁻¹ s⁻¹] | K, concentration-dependent reaction rate (formation from aquacobalamin) [2] [M⁻¹ s⁻¹] | Effect of binding to human wild type CblC on configuration (human wild type CblC) | Half-life of beta-axial ligand removal, Wild type CblC [3] [min] | Product under ambient conditions, Mutant Arg161Gly [4] | Half-life of beta-axial ligand removal, Mutant Arg161Gly [4] [min] | MMA in conditioned medium [5, 9] [μmol/mg protein] | MMA in conditioned medium [5, 10] [μmol/mg protein] | MMA in conditioned medium [5, 11] [μmol/mg protein] | MMA in conditioned medium [5, 12] [μmol/mg protein] | MMA in conditioned medium [5, 13] [μmol/mg protein] | MMA in conditioned medium [6, 14] [μmol/mg protein] | MMA in conditioned medium [6, 15] [μmol/mg protein] | MMA in conditioned medium [6, 16] [μmol/mg protein] | MMA in conditioned medium [6, 17] [μmol/mg protein] | MMA in conditioned medium [6, 18] [μmol/mg protein] | MMA in conditioned medium [6, 19] [μmol/mg protein] | MMA in conditioned medium [6, 20] [μmol/mg protein] | MMA in conditioned medium [6, 21] [μmol/mg protein] | Product under ambient conditions, Wild type CblC [7] | other results
CC(C[S][Co+2])C(=O)N1CCCC1C(=O)O.CC1=C2N=C(C=C3N=C(C(C)=C4[N-]C(C(CC(N)=O)C4(C)CCC(=O)NCC(C)OP(=O)([O-])OC4C(CO)OC(n5cnc6cc(C)c(C)cc65)C4O)C4(C)N=C1C(CCC(N)=O)C4(C)CC(N)=O)C(CCC(N)=O)C3(C)C)C(CCC(N)=O)C2(C)CC(N)=O (centres unmarked) [CaptoprilCbl] | 24.7 | – | – | – | – | – | – | – | – | – | – | – | – | – | – | – | – | – | – | – | –
CC1=C2N=C(C=C3N=C(C(C)=C4[N-]C(C(CC(N)=O)C4(C)CCC(=O)NCC(C)OP(=O)([O-])OC4C(CO)OC(n5cnc6cc(C)c(C)cc65)C4O)C4(C)N=C1C(CCC(N)=O)C4(C)CC(N)=O)C(CCC(N)=O)C3(C)C)C(CCC(N)=O)C2(C)CC(N)=O.NCC[S][Co+2] (centres unmarked) [CyaCbl] | – | 28.66 | induces their base-off configuration | <0.5 | H2OCbl | 2.1 | 0.141 | 0.154 | 0.095 | 0.184 | 0.144 | 0.217 | 0.369 | 0.208 | 0.194 | 0.189 | 0.114 | 0.215 | 0.190 | H2OCbl | Product of the reaction [3]: H2OCbl^+; Reduction of MMA to the levels of healthy fibroblasts, compared with CNCbl [6]: far superior compared to CNCbl; Transport into the cells (cultured fibroblasts): transported successfully into the cells; Cytotoxicity (cultured fibroblasts): not cytotoxic
C/C1=C2N=C(/C=C3N=C(/C(C)=C4\[N-]C(C(CC(N)=O)C4(C)CCC(=O)NCC(C)OP(=O)([O-])OC4C(CO)OC(n5cnc6cc(C)c(C)cc65)C4O)C4(C)N=C1C(CCC(N)=O)C4(C)CC(N)=O)C(CCC(N)=O)C\3(C)C)C(CCC(N)=O)C/2(C)CC(N)=O.NC(CCC(=O)NC(C[S-])C(=O)NCC(=O)O)C(=O)O.[Co+3] (centres unmarked) [GSCbl, glutathionylcobalamin, reference compound] | 18.09 | 20.74 | – | 2.5 | H2OCbl | 9.8 | 0.106 | 0.134 | 0.105 | 0.078 | 0.135 | 0.223 | 0.167 | 0.052 | 0.198 | 0.316 | 0.269 | 0.204 | 0.275 | H2OCbl | Fold less proficient support of the CblC reaction than MPGCbl and CyaCbl ([3]; wild type and pathogenic variant Arg161Gly): 4-5 fold
CC([S][Co+2])C(=O)NCC(=O)O.CC1=C2N=C(C=C3N=C(C(C)=C4[N-]C(C(CC(N)=O)C4(C)CCC(=O)NCC(C)OP(=O)([O-])OC4C(CO)OC(n5cnc6cc(C)c(C)cc65)C4O)C4(C)N=C1C(CCC(N)=O)C4(C)CC(N)=O)C(CCC(N)=O)C3(C)C)C(CCC(N)=O)C2(C)CC(N)=O (centres unmarked) [MPGCbl] | – | 39.71 | induces their base-off configuration | <0.5 | H2OCbl | 1.5 | 0.120 | 0.121 | 0.116 | 0.096 | 0.148 | 0.182 | 0.190 | 0.087 | 0.212 | 0.216 | 0.183 | 0.178 | 0.185 | H2OCbl | Configuration in the absence of the CblC protein [8]: at least a fraction of this Cbl derivative may exist in its base-off configuration; Product of the reaction [3]: H2OCbl^+; Reduction of MMA to the levels of healthy fibroblasts, compared with CNCbl [6]: far superior compared to CNCbl; Transport into the cells (cultured fibroblasts): transported successfully into the cells; Cytotoxicity (cultured fibroblasts): not cytotoxic
